Assay results: patent US20150045313A1, “Ectoparasiticidal Methods and Formulations” (Eli Lilly and Company, priority 2009, published 2015)

Tests used:
House Fly = assay: Adult House Fly Assay (AhsF); design: species or system Musca domestica; conditions: House Fly, 24 h
Protocol: Adult Stable or House Fly Assay (ASF, AhsF). This assay is conducted essentially as described in White, W. H., S. M. Bauer, X. Zhao et al., Comparison of in vitro and in vivo ectoparasiticide activity of an experimental benzimidazole-carbamate with permethrin and amitraz, J. Med. Entomol. 42, 207-211 (2005); and White, W. H., C. M. McCoy, J. A. Meyer et al., Knockdown and mortality comparisons among spinosad-, imidacloprid-, and methomyl-containing baits against susceptible Musca domestica (Diptera: Muscidae) under laboratory conditions, J. Econ. Entomol. 100, 155-163 (2007).
Test material is formulated in DMSO at 10 mM. Doubling dilutions in like solvent are made to yield 10 testing levels. Materials are diluted in either bovine serum (stable flies) or 5% glucose solution (house flies) to obtain desired exposure concentrations from 200-0.39 μM. Approximately 3 ml of diluted test material is placed into a test tube (n=3 per test level) and a dental wick is used to absorb fluid. One dental wick is placed into a small weigh boat inside of a 100 mm Petri dish. Approximately 10 mixed-sex adult flies are anesthetized using carbon dioxide and counted into each dish. Dishes are incubated at 27° C. and 50-70% relative humidity. Flies recover from anesthesia and feed on compound-soaked dental wicks. After 24 h, live/dead flies are enumerated. Nonlinear regression is used to model dose-mortality relationship and obtain relative potency (LD50) data compared to contemporaneous controls (solvent-only or permethrin).

[1] = test system: Lone Star Tick (Amblyomma americanum); assay: Cattle Ectoparasiticide Test, single dose whole-body spray against lone star tick; format: in vivo
Description: Cattle Ectoparasiticide Test (CET)/Horn Fly (Haematobia irritans) and/or Adult Tick (Amblyomma americanum): Cattle are housed in environmentally controlled rooms, 1 or 2 animals per room that have screened doors and ventilation system to prevent fly escape. Following treatment application, a defined number of horn flies are released into each room (typically at or above economic threshold of 200 flies per animal). After defined periods of time, the numbers of live horn flies remaining on animals are enumerated. If a combination horn fly and tick experiment is conducted, adult lone star ticks are placed into surgical stockinette enclosures that are glued onto the backs of cattle. Cattle are restrained in a modified head gate within environmentally controlled rooms. Horn flies may be enumerated, followed by determination of the numbers of dead ticks inside of containment units. Typically there are 2 containment units per animal and at least 2 animals per treatment group.
A) Single Dose Efficacy Testing and Comparison of Spinetoram with Elector against Lone Star Tick (Amblyomma americanum) Infestations on Cattle. Technical spinetoram was formulated as a 25 g/L suspension concentrate using the same formulatin components as found in Elector. Test material was applied to animals as a whole-body topical spray. Total of two animals per treatment group; each animal harbored ticks inside of 3 containment units (n=3 per animal or n=6 per treatment group). Concentrates (25 g/L) diluted in water; treatment level equivalent to marketed rate for Elector (0.5 g AI per animal).

Cat Flea = assay: Flea Contact Assay (FCA)
Protocol: Flea Contact Assay (FCA)/Cat Flea: Test material is formulated in acetone at the desired exposure concentration and doubling dilutions performed to obtain a total of 10 testing levels. Approximately 0.05 ml of formulated material is dispensed into the bottom of a test tube containing a small amount of dog hair. Acetone is allowed to evaporate under a fume hood overnight. Approximately 10 mixed-sex adult cat flea are anesthetized using carbon dioxide and dispensed into each tube. Tubes are sealed using a ventilated plastic cap and incubated at 27° C. and 75-80% relative humidity. […] Nonlinear regression is used to model dose-mortality relationship and obtain relative potency (LD50) data compared to contemporaneous controls (acetone-only or fipronil).

fleas (C. felis) = assay: Third evaluation, speed-of-kill of topical spot-on against fleas on cats; format: in vivo; design: flea reduction 12 hours after additional infestation: concentration or dose not given beside the values
Protocol: Third evaluation of spinetoram as a topical spot-on for control of cat flea infestations. A study was conducted to evaluate the speed-of-kill efficacy of spinetoram applied topically for the control of fleas (C. felis) on cats. Thirty-six cats were evenly allocated into six groups. One group was a no treatment and no vehicle group. On study days −8 and −1, each cat was infested with approximately 100 newly emerged, unfed adult fleas (C. felis), with an approximate split of 50/50 male to female flea. The topical solution used was spinetoram, on a pure basis, 39.6% w/w (210 mg spinetoram/0.5 ml dose), with benzyl alcohol and butylated hydroxytoluene. The treated groups were dosed once on Study Day 0 by application at the base of the skull at skin level, and flea counts were conducted as follows: […]

Lone Star Tick = assay: Larval Packet Test (LPT)
Protocol: Larval Packet Test (LPT)/Ticks: Test material is formulated in a 2:1 ratio of trichloroethylene: olive oil. Tissue biopsy bags are saturated with 1 ml of formulated material (n=3 per test level), and bags are allowed to dry under a fume hood for at least 2 hours. Approximately 50-100 larval-stage ticks are placed into each bag, and the bag is sealed using a plastic dialysis clip and incubated for 24 h at 27° C. and 95% relative humidity. Bags are then opened, and live/dead ticks are enumerated. Nonlinear regression is used to model dose-mortality relationship and obtain relative potency (LD50) data compared to contemporaneous controls (solvent-only or fipronil).

## Spinetoram
House Fly
  Spinetoram: Spinosad Potency Ratio: 5.5
House Fly; read-out: Potency (24 h EC50 μM)
  EC50: 2.18 µM
[1]; cattle, whole-body spray 0.5 g AI per animal, Day 1, 2 hr
  percent tick reduction, 2 hr: 0%
[1]; cattle, whole-body spray 0.5 g AI per animal, Day 1, 6 hr
  percent tick reduction, 6 hr: 0%
[1]; cattle, whole-body spray 0.5 g AI per animal, Day 1, 10 hr
  percent tick reduction, 10 hr: 0%
[1]; cattle, whole-body spray 0.5 g AI per animal, Day 2, 24 hr
  percent tick reduction, 24 hr: 0%
[1]; cattle, whole-body spray 0.5 g AI per animal, Day 3, 48 hr
  percent tick reduction, 48 hr: 8.14%
[1]; cattle, whole-body spray 0.5 g AI per animal, Day 4, 72 hr
  percent tick reduction, 72 hr: 8.14%
[1]; cattle, whole-body spray 0.5 g AI per animal, Day 7, 144 hr
  percent tick reduction, 144 hr: 46.67%
[1]; speed of kill, adult lone star ticks on cattle, 0.5 g AI per animal
  ET50: 148.2 h
[1]; topically to cattle at 0.5 g/animal
  activity (potency and speed of kill) compared to Elector: equivalent activity
Cat Flea; Cat Flea, 24 h
  Potency (EC50 ng/cm^2) 24 h: 1.292 ng/cm^2
  Spinetoram: Spinosad Potency Ratio 24 h: 2.4
Cat Flea; Cat Flea, 48 h
  Potency (EC50 ng/cm^2) 48 h: 0.6238 ng/cm^2
  Spinetoram: Spinosad Potency Ratio 48 h: 2.4
Cat Flea; adult cat fleas, time not stated
  times more potent than spinosad in vitro: 2.4 times
Fleas (C. felis); 28 days after treatment
  flea reduction 1 hour after additional infestation: 80.7%
  flea reduction 4 hours after additional infestation: 91.6%
  flea reduction 8 hours after additional infestation: 98.5%
  flea reduction 12 hours after additional infestation: 100%
  flea reduction 24 hours after additional infestation: 100%
Fleas (C. felis); cats, 210 mg/0.5 ml dose, 4 hours
  reduction in live flea numbers, four hours after treatment: 63.2%
Fleas (C. felis); cats, 210 mg/0.5 ml dose, 8 hours
  efficacy level, eight hours post-dosing: 94.6%
Fleas (C. felis); cats, 210 mg/0.5 ml dose, 12 hours
  efficacy, twelve hour time point: 98.6%
Fleas (C. felis); cats, 210 mg/0.5 ml dose, 24 hours
  efficacy, twenty-four hour time point: 100%
Fleas (C. felis); seven days after treatment
  flea reduction 4 hours after additional infestation: 100%
  flea reduction 8 hours after additional infestation: 100%
  flea reduction 12 hours after additional infestation: 100%
  flea reduction 24 hours after additional infestation: 100%
Fleas (C. felis); seven days after treatment, 1 hour
  fleas killed within one hour of an additional infestation: over 90%
Lone Star Tick; Lone Star Tick
  Spinetoram/Spinosad Potency Ratio: 0.4
Lone Star Tick; Lone Star Tick larvae, 24 h
  Potency (EC50): 531.6 ppm
